Laboratory results published in US20060263802A1 (priority 2003, published 2006).

Experiments:
Format in all cases: binding
[1] = system: human monoclonal antibody CR57
[2] = system: human monoclonal antibody CR57; remark: listed apart in the source
[3] = system: human monoclonal antibody CRJB
[4] = system: human monoclonal antibody CRJA
[5] = system: human monoclonal antibody CRJB; remark: listed apart in the source
[6] = system: human monoclonal antibody CRJA; remark: listed apart in the source

Sequence | Binding of CR57 (10 μg/ml) to looped/cyclic peptide (PEPSCAN-ELISA signal) [1] | Binding of CR57 to linear peptide (PEPSCAN-ELISA signal) [2] | Binding of CRJB (10 μg/ml) to looped/cyclic peptide (PEPSCAN-ELISA signal) [3] | Binding of CRJA (10 μg/ml) to looped/cyclic peptide (PEPSCAN-ELISA signal) [4] | Binding of CRJB to linear peptide (PEPSCAN-ELISA signal) [5] | Binding of CRJA to linear peptide (PEPSCAN-ELISA signal) [6] | Binding of CR57 (10 μg/ml) to looped/cyclic peptide (PEPSCAN-ELISA) [1] | Binding of CRJB (10 μg/ml) to looped/cyclic peptide (PEPSCAN-ELISA) [3] | Binding of CRJA (10 μg/ml) to looped/cyclic peptide (PEPSCAN-ELISA) [4] | binding of antibody CR57 to looped/cyclic peptide (PEPSCAN OD) [1] | Binding of CR57 to looped/cyclic peptide (PEPSCAN-ELISA signal) [1] | Binding of human monoclonal antibody CR57 to linear peptide (PEPSCAN-ELISA signal) [2] | Binding of CRJB to looped/cyclic peptide (PEPSCAN-ELISA signal) [3] | Binding of CRJA to looped/cyclic peptide (PEPSCAN-ELISA signal) [4] | Binding of human monoclonal antibody CRJB to linear peptide (PEPSCAN-ELISA signal) [5] | Binding of human monoclonal antibody CRJA to linear peptide (PEPSCAN-ELISA signal) [6]
IDIHHLSCPNNLVVE | 55 | 69 | 59 | 55 | 102 | 61 |  |  |  |  |  |  |  |  |  | 
AHYKSVRTWNEILPS |  | 112 |  |  | 160 | 106 | 106 | 106 | 104 |  |  |  |  |  |  | 
EIEHLVVEELVRKRE |  | 82 |  |  | 113 | 86 | 107 | 89 | 93 |  |  |  |  |  |  | 
GGRCHPHVNGVFFNG |  | 86 |  |  | 119 | 110 | 134 | 110 | 107 |  |  |  |  |  |  | 
RTWNEILPSKGCLRV |  | 120 |  |  | 127 | 97 | 107 | 93 | 102 |  |  |  |  |  |  | 
VKTTKESLVIISPSV | 98 | 71 | 92 | 100 | 120 | 96 |  |  |  |  |  |  |  |  |  | 
PYDRSLHSRVFPSGK | 134 | 86 | 90 | 113 | 120 | 104 |  |  |  |  |  |  |  |  |  | 
RKLVPGFGKAYTIFN |  | 47 |  |  | 115 | 48 | 52 | 79 | 44 |  |  |  |  |  |  | 
KTTKESLVIISPSVA | 111 | 101 | 75 | 104 | 112 | 82 |  |  |  |  |  |  |  |  |  | 
GYVTTTFKRKHFRPT | 200 | 70 | 138 | 101 | 123 | 87 |  |  |  | clearly bound |  |  |  |  |  | 
TPDACRAAYNWKMAG | 125 | 92 | 90 | 111 | 132 | 132 |  |  |  |  |  |  |  |  |  | 
EADAHYKSVRTWNEI |  | 58 |  |  | 97 | 79 | 78 | 76 | 63 |  |  |  |  |  |  | 
HNQVSGVDLGLPNWG |  |  |  |  |  |  |  |  |  |  | 78 | 76 | 100 | 55 | 106 | 66
PWSPIDIHHLSCPNN | 93 | 62 | 75 | 91 | 104 | 76 |  |  |  |  |  |  |  |  |  | 
PEMQSSLLQQHMELL |  | 62 |  |  | 133 | 79 | 72 | 82 | 78 |  |  |  |  |  |  | 
TLMEADAHYKSVRTW |  | 100 |  |  | 114 | 111 | 89 | 87 | 89 |  |  |  |  |  |  | 
ISPSVADLDPYDRSL | 66 | 50 | 64 | 46 | 119 | 56 |  |  |  |  |  |  |  |  |  | 
PDQLVNLHDFRSDEI |  | 35 |  |  | 106 | 43 | 70 | 73 | 46 |  |  |  |  |  |  | 
ILPSKGCLRVGGRCH |  | 79 |  |  | 113 | 112 | 105 | 91 | 97 |  |  |  |  |  |  | 
LVPGFGKAYTIFNKT |  | 54 |  |  | 112 | 83 | 87 | 58 | 58 |  |  |  |  |  |  | 
DQLVNLHDFRSDEIE |  | 54 |  |  | 117 | 88 | 46 | 27 | 63 |  |  |  |  |  |  | 
SSTYCSTNHDYTIWM | 96 | 76 | 66 | 90 | 107 | 71 |  |  |  |  |  |  |  |  |  | 
